We go through one molecule from patent publication US20100104546A1, “MODULATORS OF ANTIGEN-DEPENDENT T CELL PROLIFERATION” (CHILDREN, YOUTH AND WOMEN'S HEALTH SERVICE, priority 2007, published 2010).

The term IC50 denotes the midpoint of a concentration-inhibition curve.

Assay [1] concerns splenocytes. Description: Tetanus toxoid (TT)-induced ex vivo lymphocyte proliferation after administration to TT-immunized mice. The following applies: 10, 40 and 80 mg/kg i.p. in mouse serum, spleens removed 2 h later. Here is the method:
Mice were immunized with SRBC. After 5 days they were given β-thia-21:3n-3 at the indicated doses i.p. After 2 hours the spleens were removed and processed into single cell suppressions. These were then cultured in the presence (□), or absence of (▪) of SRBC to assess the proliferation. The results are expressed as mean±SEM of 3 experiments. (B) Effect of β-oxa-21:3n-3 on tetanus toxoid (TT)-induced ex vivo lymphocyte responses. Mice were immunized with TT subcutaneously and after 7 days were given β-oxa-21:3n-3 in mouse serum, intraperitoneally. Two hours later the spleen removed, single cell suspension prepared and examined for lymphoproliferation responses to TT in 5 day cultures. The results are expressed as mean±SEM of 3 experiments.
6-7 weeks old Balb/c mice were injected subcutaneously with 100 μl of 10% sheep red blood cells (IMVS, Inc., Adelaide, Australia) After 5 days 100 ul of β-oxa-21:3n-3 at indicated amounts were injected intraperitoneally, intravenously or gavaged orally. […] Cells were washed with RPMI-1640 containing 10% fetal bovine serum, 10 mM Hepes, antibiotics and glutamine (RPMI-10) and counted using an automated Cell-Dyne 3500R (Abbott, Inc. MA) instrument. […] Cells were harvested and thymidine incorporation was determined using a beta scintillation counter. […]

In assay [2] the test system is Human PBMC. Description: Human lymphocyte proliferation assay, antigen (tetanus toxoid)-induced. In kind it is cell-based. As to the method: Peripheral blood mononuclear cells were purified from the blood of normal volunteers using hypagn-ficoll density gradient separation. In the assay 100 μl of PBM (treated or untreated) at a concentration of 2×10^6/ml were stimulated by the addition of 100 μl of PHA (μg/ml) or […] 2 μg/ml TT in microtitre plates. The cultures contained 5% human blood group AB serum. The cells were incubated at 37° C. in 5% CO2-air and high humidity for 72 h or 5 days (for TT). The cultures were pulsed with 1 μl of 3H-TdR 6 h prior to harvest. The amount of radioactivity incorporated was determined to assess the degree of lymphoproliferation.
To attempt to resolve this discrepancy, we examined the sensitivity of the antigen-induced (tetanus toxoid) human lymphocyte response in vitro, under the same conditions as those in which the PHA-induced response were inhibited by β-oxa21:3n-3. Human PBMC which were known to show lymphoproliferation in response to TT were pretreated with a range of concentrations of β-oxa21:3n-3 and then stimulated with TT. Proliferation was quantitated after […] of incubation of cultures. […] Using purified human T cells which were stimulated with PHA-PMA we were able to ascertain that when β-oxa21:3n-3 was added to cells the stimulated cells contained 30 fold more β-oxa-21:3n-3 than resting T cells (FIG. 5B).

The test system of assay [3] is circulating cytokine levels. Description: Circulating cytokine levels in SRBC-sensitized mice after intravenous SRBC challenge. The following applies: serum, 80 mg/kg IP, 6 h after IV SRBC. In kind it is in vivo. Here is the method: Mice were injected subcutaneously with SRBC. After 5 days β-oxa-21:3n-3 (80 mg/kg) or vehicle (whole mouse serum) were injected intraperitoneally. 2 hours later SRBC were injected intravenously. The blood was collected from orbital plexus at 6 hours post intravenous SRBC injection. Serum was separated and frozen immediately at −70° C. The levels of cytokine were measured using BD mouse CBA kits using a BD Array instrument (BD, La Jolla, Calif.).
The insights from these cytokine studies prompted us to investigate whether injected β-oxa-21:3n-3 could regulate cytokine levels in vivo. The β-oxa-21:3n-3- or vehicle-administered pre-immune animals were challenged intravenously with SRBC; after 6 h the serum prepared from the mouse blood and cytokine levels measured.

Assay [4] deals with circulating cytokine levels. The assay is described as above. The following applies: serum, 80 mg/kg IP, 6 h after IV SRBC; ELISA. In kind it is in vivo.
Assay [5] concerns delayed-type hypersensitivity to SRBC antigen. The following applies: intraperitoneal administration, mouse hind paws; cited from earlier work.

As to `CC/C=C\C/C=C\C/C=C\CCCCCCCCOCC(=O)O` [β-oxa-21:3n-3], in assay [1], the “lymphoproliferation in response to TT” value is given as “capable of inhibiting the response”. Further, in assay [2] (TT versus PHA IC50), the “sensitivity of antigen-induced response relative to mitogenic response” value came to 15 fold. Also, in assay [2] (tetanus toxoid-stimulated human PBMC, in vitro, read-out: IC50 for the inhibition of the antigen-induced response), the IC50 was found to be 2000 nM. Further, in assay [3], the IFNγ conc was 229 ± 40 pg/mL, the IL-2 conc came out at 73 ± 10 pg/mL, the IL-4 conc turned out to be 3.5 ± 2 pg/mL and the IL-5 conc amounted to 120 ± 21 pg/mL. Further, in assay [3], the IL-6 conc was 35 ± 8 pg/mL, the IL-10 conc amounted to 9 ± 5 pg/mL, the IL-12 conc was 320 ± 145 pg/mL and the IL-13 conc stood at 0 ± 0 pg/mL. For the same molecule, in assay [3], the KC conc was determined as 61 ± 21 pg/mL, the MCP-1 conc is 2039 ± 457 pg/mL and the TNFα conc amounted to 15 ± 3 pg/mL. Besides, the TGFβ conc result in assay [4] was “(52 ± 6) × 10^3 pg/ml”. Moreover, the “delayed-type hypersensitivity to SRBC antigen” value in assay [5] is reported as “inhibition”.
